Measurements reported in paper PMC11865978, “Cellular Activity of CQWW Nullomer-Derived Peptides” (ACS Omega, 2025).

Assays:
[1] = test system: mitochondria, all cell lines including GCGR-NS9FB_B; assay: Mitotracker stain intensity in cell painting assay; assay type: cell-based, human; details: compared with Peptide 15 control
Method: Figure S4 – Network analysis (STRING) showing protein interactions resulting from treatment with […]
2nd shell) <10. Top ranked Gene Ontology (GO terms) for biological processes is listed (top right) with Log[False Discovery Rate] indicated.
(§1) High Content Phenotypic Screening assays
Cell lines (glioma stem cell lines and normal foetal neural stem cells) were seeded on laminin (10 µg/mL) coated 384-well plates (Greiner Bio-One, 781091) at 1,000 cells/well and incubated overnight at 37 °C and 5% CO2. Aqueous peptide solutions (10 mM) were further diluted to 1 mM in water containing 10 % glycerol and 0.01 % TX-100. […]
(§2) BSA/PBS. […] The data was then analyzed using a custom CellProfiler software pipeline using the University of Edinburgh high performance computing cluster. Dose response plots were calculated using HC StratomineR (corelifeanalytics.com). Nuclei count data was analyzed separately to generate cell survival metrics (normalized to aqueous glycerol/TX -100 control).
Dose response curves were fitted and IC50 values calculated using Prism GraphPad (graphpad.com). […]
Figure S5 – The CellProfiler-derived feature “MedianNucleiIntensityMADIntensityW5”, reading out mitotracker stain intensity observed in cell nuclei after treatment with the Peptide 2 nullomer (blue) and Peptide 15 (control). […]

[2] = test system: patient-derived glioblastoma cell lines; assay: Cell survival by nuclei counts, summarised across cell lines; assay type: cell-based, human; details: ratio of nuclei-count IC50s
Method: Peptides were tested in an automated image-based high-content[42] cell painting[43],[44] assay that was originally developed to explore the mechanism of action of pharmacological and genetic perturbations within cells,[45] as well as a live cell imaging assay against six patient-derived glioblastoma cell lines (GCGR-E13, GCGR-E28, GCGR-E21, GCGR-E57, GCGR-E31, and GCGR-E34), covering classical, mesenchymal, and proneural subtypes, respectively (see Methods and Figure 1B–D), along with a healthy human fetal neuronal stem cell line (GCGR-NS9FB_B).
Cell survival was quantified by nuclei counts from the Hoechst dye-stained nuclei and IC50 values calculated along with 95% confidence intervals (Figure 1B; see Table S2 for full details). […]
as §1
Cell lines (glioma stem cell lines and normal foetal neural stem cells) were seeded on laminin (10 µg/mL) coated 384-well plates (Greiner Bio-One, 781091) at 1,000 cells/well and incubated overnight at 37 °C and 5% CO2. […]
as §2, with “control). […]” for “control).”

Q: Which “mitotracker stain intensity in cell nuclei (MedianNucleiIntensityMADIntensityW5)” value [1] does the source give for H-RRRRRCQWW-NH2 [Peptide 2] here?
A: Its value is “reduce mitotracker intensity in a dose dependent manner”.

Q: What about the “mitotracker stain intensity in cells (MedianCellsIntensityMeanIntensityW5)” value [1] of the same substance?
A: Its value is “reduce mitotracker intensity in a dose dependent manner”.

Q: What about the “selectivity for reduction in nuclei counts, glioblastoma stem cells compared to normal neural stem cells (GCGR-NS9FB_B)” value [2] of the same substance?
A: The value was 1.5- to 2 fold.
